Reference: patent publication US20190002436A1, “RESPIRATORY SYNCYTIAL VIRUS INHIBITORS” (MEDIVIR AB, priority 2015, published 2019)

System: RSV (Long)
Assay: RSV cytopathic effect (CPE)-based viral replication assay
Type: cell-based, respiratory syncytial virus (RSV)
Settings: HEp-2 cells infected with RSV Long at MOI 0.015; 3 days at 37° C.; cell viability by CellTiter-Glo luminescence; read-out: EC50 (nm)
How it was run: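 HEp-2 cells, 2,500 per well in DMEM with 2% heat-inactivated FBS, treated with 10-point compound dilutions and infected with RSV Long at MOI 0.015. After 3 days at 37 °C, 5% CO2, viability read by CellTiter-Glo luminescence; EC50 derived from CPE data.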

| SMILES | EC50 [nM] |
| --- | --- |
| CS(=O)(=O)N1CCC2(CC1)C(=O)N(Cc1ncc3ccccc3c1C1CNC(=O)C1)c1cnccc12 (stereo not drawn) [Example 2041] | 5.8 |
| CS(=O)(=O)Nc1ccc(-c2c(CN3C(=O)C4(CN(C(=O)C5(N)CC5)C4)c4ccccc43)ncc3ccccc23)cc1 [Example 132b, N-(4-(3-((1-(1-aminocyclopropanecarbonyl)-2′-oxospiro[azetidine-3,3′-indolin]-1′-yl)methyl)isoquinolin-4-yl)phenyl)methanesulfonamide] | 5.1 |

Same assay, conditions: human respiratory syncytial virus, HEp-2, 72 h, HEp-2 cells infected with RSV Long at MOI 0.015; 3 days at 37° C.; cell viability by CellTiter-Glo luminescence; read-out: EC50 (nm)

| SMILES | EC50 [nM] |
| --- | --- |
| CC(C)(C)NC(=O)N1CC2(C1)C(=O)N(Cc1ncc3ccccc3c1CCCCO)c1ccccc12 [Example 56, N-(tert-butyl)-1′-((4-(4-hydroxybutyl)isoquinolin-3-yl)methyl)-2′-oxospiro[azetidine-3,3′-indoline]-1-carboxamide] | 1.3 |
| NC(=O)N1CCC2(CC1)C(=O)N(Cc1ncc3ccccc3c1-c1cccnc1)c1cnccc12 [Example 135b, 2′-oxo-1′-((4-(pyridin-3-yl)isoquinolin-3-yl)methyl)-1′,2′-dihydrospiro[piperidine-4,3′-pyrrolo[2,3-c]pyridine]-1-carboxamide] | 2 |
| CNC(=O)O[C@H]1C[C@@]2(C1)C(=O)N(Cc1ncc3ccccc3c1-c1ccc(C#N)nc1)c1ccccc12 [Example 133, (1R,3R)-1′-((4-(6-cyanopyridin-3-yl)isoquinolin-3-yl)methyl)-2′-oxospiro[cyclobutane-1,3′-indolin]-3-yl methylcarbamate] | 3.4 |
| NCCCC(=O)N1CCC2(CC1)C(=O)N(Cc1ncc3ccccc3c1-c1cccnc1)c1cnccc12 [Example 142, 1-(4-aminobutanoyl)-1′-((4-(pyridin-3-yl)isoquinolin-3-yl)methyl)spiro[piperidine-4,3′-pyrrolo[2,3-c]pyridin]-2′(1′H)-one] | 5.8 |
| N#Cc1ccc(-c2c(CN3C(=O)C4(CCN(C(=O)C5(N)CC5)CC4)c4ccncc43)ncc3ccccc23)cn1 [Example 65, 5-(3-((1-(1-aminocyclopropanecarbonyl)-2′-oxospiro[piperidine-4,3′-pyrrolo[2,3-c]pyridin]-1′(2′H)-yl)methyl)isoquinolin-4-yl)picolinonitrile] | 6.4 |
| COC(=O)N1CC2(C1)C(=O)N(Cc1nc(C(F)F)c3ccccc3c1-c1cccnc1)c1ccccc12 [Example 2003] | 1000 |
| CS(=O)(=O)N(c1ccc(-c2c(CN3C(=O)C4(CCN(C(=O)C5(C(F)(F)F)CC5)CC4)c4ccncc43)ncc3ccccc23)cn1)S(C)(=O)=O [Example 166d, N-(methylsulfonyl)-N-(5-(3-((2′-oxo-1-(1-(trifluoromethyl)cyclopropanecarbonyl)spiro[piperidine-4,3′-pyrrolo[2,3-c]pyridin]-1′(2′H)-yl)methyl)isoquinolin-4-yl)pyridin-2-yl)methanesulfonamide] | 2.5 |
| CN(C)C(=O)c1ccc(-c2c(CN3C(=O)C4(CCN(C(=O)C5(N(C)C)CC5)CC4)c4ccncc43)ncc3ccccc23)cn1 [Example 119b, 5-(3-((1-(1-(dimethylamino)cyclopropanecarbonyl)-2′-oxospiro[piperidine-4,3′-pyrrolo[2,3-c]pyridin]-1′(2′H)-yl)methyl)isoquinolin-4-yl)-N,N-dimethylpicolinamide] | 2.8 |
| COC(=O)N1CC2(C1)C(=O)N(Cc1ncc3ccccc3c1-c1ccc(S(N)(=O)=O)cc1)c1ccccc12 [Example 99, Methyl 2′-oxo-1′-((4-(4-sulfamoylphenyl)isoquinolin-3-yl)methyl)spiro[azetidine-3,3′-indoline]-1-carboxylate] | 0.75 |
| O=c1n(Cc2ncc3ccccc3c2-c2cccc(CO)c2)c2cnccc2n1C1CC1 [Example 10, 1-Cyclopropyl-3-((4-(3-(hydroxymethyl)phenyl)isoquinolin-3-yl)methyl)-1H-imidazo[4,5-c]pyridin-2(3H)-one] | 240 |
| COC(=O)N1CC2(C1)C(=O)N(Cc1ncc3ccccc3c1-c1ccc(NS(C)(=O)=O)nc1)c1ccccc12 [Example 134b, Methyl 1′-((4-(6-(methylsulfonamido)pyridin-3-yl)isoquinolin-3-yl)methyl)-2′-oxospiro[azetidine-3,3′-indoline]-1-carboxylate] | 0.55 |
| COC(=O)N1CCC(n2c(=O)n(Cc3ncc4cccc(F)c4c3CCCCO)c3cnccc32)CC1 [Example 30, Methyl 4-(3-((5-fluoro-4-(4-hydroxybutyl)isoquinolin-3-yl)methyl)-2-oxo-2,3-dihydro-1H-imidazo[4,5-c]pyridin-1-yl)piperidine-1-carboxylate] | 18 |
| COC(=O)N1CC2(C1)C(=O)N(Cc1ncc3ccccc3c1-c1ccc(F)nc1F)c1ccccc12 [Example 96, Methyl 1′-((4-(2,6-difluoropyridin-3-yl)isoquinolin-3-yl)methyl)-2′-oxospiro[azetidine-3,3′-indoline]-1-carboxylate] | 2.2 |
| NCC(=O)N1CCC2(CC1)C(=O)N(Cc1ncc3ccccc3c1-c1cccnc1)c1cnccc12 [Example 143, 1-(2-aminoacetyl)-1′-((4-(pyridin-3-yl)isoquinolin-3-yl)methyl)spiro[piperidine-4,3′-pyrrolo[2,3-c]pyridin]-2′(1′H)-one] | 10 |
| CC1(n2c(=O)n(Cc3ncc4ccccc4c3-c3ccc(C#N)nc3)c3ccccc32)CC1 [Example 90b, 5-(3-((3-(1-methylcyclopropyl)-2-oxo-2,3-dihydro-1H-benzo[d]imidazol-1-yl)methyl)isoquinolin-4-yl)picolinonitrile] | 5.1 |
| COC(=O)N1CCC2(CC1)C(=O)N(Cc1ncc3ccccc3c1-c1ccc(C#N)cc1)c1cnccc12 [Example 12b, Methyl 1′-((4-(4-cyanophenyl)isoquinolin-3-yl)methyl)-2′-oxo-1′,2′-dihydrospiro[piperidine-4,3′-pyrrolo[2,3-c]pyridine]-1-carboxylate] | 10 |
| COC(=O)N1CC2(C1)C(=O)N(Cc1ncc3ccccc3c1-c1ccc(F)nc1)c1ccccc12 [Example 73] | 1.6 |
| N#Cc1ccc(-c2c(CN3C(=O)C4(CCN(C(=O)C(F)(F)F)CC4)c4ccncc43)ncc3ccccc23)cn1 [Example 66-2, 5-(3-((2′-Oxo-1-(2,2,2-trifluoroacetyl)spiro[piperidine-4,3′-pyrrolo[2,3-c]pyridin]-1′(2′H)-yl)methyl)isoquinolin-4-yl)picolinonitrile] | 6 |
| CNC1(C(=O)N2CC3(C2)C(=O)N(Cc2ncc4ccccc4c2-c2ccc(S(N)(=O)=O)nc2)c2ccccc23)CC1 [Example 123b, 5-(3-((1-(1-(methylamino)cyclopropanecarbonyl)-2′-oxospiro[azetidine-3,3′-indolin]-1′-yl)methyl)isoquinolin-4-yl)pyridine-2-sulfonamide] | 15 |
| NCC(N1CC2(C1)C(=O)N(Cc1ncc3ccccc3c1-c1cccnc1)c1ccccc12)C(F)(F)F (stereo not drawn) [Example 2037] | 0.82 |
| O=C1N(Cc2ncc3ccccc3c2-c2ccc(F)nc2)c2ccccc2C12CN(CCF)C2 [Example 86, 1-(2-fluoroethyl)-1′-((4-(6-fluoropyridin-3-yl)isoquinolin-3-yl)methyl)spiro[azetidine-3,3′-indolin]-2′-one] | 20 |
| O=c1n(Cc2ncc3ccccc3c2CCCCO)c2cnccc2n1S(=O)(=O)C1CC1 [Example 22b, 1-(cyclopropylsulfonyl)-3-((4-(4-hydroxybutyl)isoquinolin-3-yl)methyl)-1H-imidazo[4,5-c]pyridin-2(3H)-one] | 15 |
